# Experimental data reported in patent US12558325B2, “Methods for improving neurological diseases and disorders” (CuraSen Therapeutics, Inc., priority 2019, dated 2026).
# “Also recorded” adds a separate entry of the source.
# Tests used:
# Ts65Dn mice = settings: increasing brain NE levels; cited from earlier work
# healthy subjects [1] = test: ASL MRI cerebral perfusion before and after a single dose (Example 3); assay type: in vivo, human
# Procedure: In a clinical study, healthy subjects were administered doses of clenbuterol ranging from 20 to 160 μg and ASL MRI was conducted prior to and after dosing with an objective to ascertain whether this neuroimaging method enables the detection of a clinically relevant CNS signal.
# In a region of interest (ROI) analysis focusing on the hippocampus, which is well understood to be affected in neurodegenerative disorders, a single dose of 80 μg of clenbuterol causes a robust increase in perfusion (see FIG. 7). […] Taken together with other cohorts in which ASL MRI was conducted, a clear dose response relationship is seen between dose of clenbuterol and cerebral perfusion (FIG. 8). […] Our hypothesis is that by improving cerebral perfusion, particularly in areas of the brain that are relevant for symptoms that are commonly found in neurodegenerative diseases such as PD and AD, the administration of a β2-AR agonist will have a positive effect on clinically relevant symptoms such as memory and cognition.
# patients = test: Cerebral blood flow relative to baseline after a single dose (Example 1); assay type: in vivo, human
# healthy subjects [2] = test: Adaptive tracking test (visuomotor coordination and vigilance); assay type: in vivo, human; settings: single dose of 160 μg clenbuterol
# Text: Adaptive tracking measures visuomotor coordination and vigilance. In this test, the subject uses a joystick to move a small dot so that it stays within a continuously moving circle on a computer screen (Boland 1984). During the test, the speed of the circle is adjusted in response to the subject's ability to keep the dot in the circle, ensuring that the test is adapted to the individual subject. […] The improvement shown by subjects is in the same range as that seen with subjects treated with the acetylcholinesterase inhibitor donepezil, which is in clinical use for the treatment of mild to moderate AD (Groeneveld 2016).
# subjects = test: Visual verbal learning test (VVLT); assay type: in vivo, human; settings: crossover study; for effect on the VVLT (learning and memory): 3 agents plus placebo
# Procedure: The visual verbal learning test (VVLT) is a test for learning and memory (de Haas 2009). Subjects are presented 30 words on a screen, one at a time, for 1 second with a 1-second interval between words over a total of 1 minute. This is repeated in 3 trials. After each trial, subjects are asked to recall as many words as they can. After the third trial, there is a delay of 2.5 hours and subjects are then tested once for delayed recall. […] Since this was a crossover study, everyone who completed Part A was dosed with the 3 agents plus placebo.
compound,measurement,setting,value
"N[C@H](C(=O)O)[C@H](O)c1ccc(O)c(O)c1 [L-DOPS, L-threo-3,4-dihydroxyphenylserine]",contextual learning,Ts65Dn mice,restored contextual learning
CC(C)(C)NCC(O)c1cc(Cl)c(N)c(Cl)c1 (stereo not shown) [clenbuterol],cerebral perfusion increase as measured by CBF,healthy subjects [1]; clenbuterol dose of 40 μg,minimal increase
same,cerebral perfusion increase as measured by CBF,healthy subjects [1]; clenbuterol doses below 30 μg,do not produce significant cerebral perfusion increases
same,improvements in perfusion in brain areas relevant to neurodegenerative disorders,healthy subjects [1]; doses of 80 and 160 μg clenbuterol,~25%
same,global perfusion,"healthy subjects [1]; doses of 80 and 160 μg clenbuterol, ASL MRI","robust, global increase"
same,"increase in hippocampal perfusion, on average","healthy subjects [1]; single dose of 80 μg clenbuterol, 6 healthy subjects aged 44 to 52, ROI hippocampus",25%
same,"cerebral perfusion (global; hippocampus, thalamus, cortex)","healthy subjects [1]; single dose of 160 μg clenbuterol, ASL MRI",robust global increase
same,cerebral blood flow (CBF) relative to the baseline,patients; single dose of clenbuterol 160 μg,robust global increase; also recorded: positive increase
same,cerebral blood flow (CBF) relative to the baseline,"patients; single dose of clenbuterol ranging from 30 to 160 μg, tracked over 3 days",robust global increase
same,performance in adaptive tracking (percent time dot kept within moving circle),healthy subjects [2],improved
same,cognition as measured by adaptive tracking and word recall,"healthy subjects [2]; healthy subjects, preliminary data",improves cognition
same,"VVLT performance, immediate recall (Trial 1)",subjects,improved performance
same,effect on the VVLT (learning and memory),subjects,positive effects
same,"VVLT performance, delayed recall",subjects; recall after delay of 2.5 hours,improved performance
CC(C)NCC(O)COc1cccc2[nH]ccc12 (stereo not shown) [pindolol],effect on the VVLT (learning and memory),subjects,detrimental effect
CC(C)(C)NCC(O)c1ccc(O)c(CO)c1 (stereo not shown) [salbutamol],effect on the VVLT (learning and memory),subjects,positive effects
